Reference: patent publication US7875650B2, “Compounds and methods to increase anti-P-glycoprotein activity of baicalein by alkylation on the A ring” (Yale University, priority 2004, dated 2011)
Read-outs that look alike come from different tables or passages of the source. Blank lines part the entries; values can stand above or below the compound they belong to.

How the values were obtained:
P-gp 170 [1] = biological target: T1, P-gp 170 (Homo sapiens, UniProt P08183); test: in vitro; settings: for Amax (maximum accumulation of intracellular vinblastine), fold higher than control: human, 60 min
T1 sequence (P08183 whole entry): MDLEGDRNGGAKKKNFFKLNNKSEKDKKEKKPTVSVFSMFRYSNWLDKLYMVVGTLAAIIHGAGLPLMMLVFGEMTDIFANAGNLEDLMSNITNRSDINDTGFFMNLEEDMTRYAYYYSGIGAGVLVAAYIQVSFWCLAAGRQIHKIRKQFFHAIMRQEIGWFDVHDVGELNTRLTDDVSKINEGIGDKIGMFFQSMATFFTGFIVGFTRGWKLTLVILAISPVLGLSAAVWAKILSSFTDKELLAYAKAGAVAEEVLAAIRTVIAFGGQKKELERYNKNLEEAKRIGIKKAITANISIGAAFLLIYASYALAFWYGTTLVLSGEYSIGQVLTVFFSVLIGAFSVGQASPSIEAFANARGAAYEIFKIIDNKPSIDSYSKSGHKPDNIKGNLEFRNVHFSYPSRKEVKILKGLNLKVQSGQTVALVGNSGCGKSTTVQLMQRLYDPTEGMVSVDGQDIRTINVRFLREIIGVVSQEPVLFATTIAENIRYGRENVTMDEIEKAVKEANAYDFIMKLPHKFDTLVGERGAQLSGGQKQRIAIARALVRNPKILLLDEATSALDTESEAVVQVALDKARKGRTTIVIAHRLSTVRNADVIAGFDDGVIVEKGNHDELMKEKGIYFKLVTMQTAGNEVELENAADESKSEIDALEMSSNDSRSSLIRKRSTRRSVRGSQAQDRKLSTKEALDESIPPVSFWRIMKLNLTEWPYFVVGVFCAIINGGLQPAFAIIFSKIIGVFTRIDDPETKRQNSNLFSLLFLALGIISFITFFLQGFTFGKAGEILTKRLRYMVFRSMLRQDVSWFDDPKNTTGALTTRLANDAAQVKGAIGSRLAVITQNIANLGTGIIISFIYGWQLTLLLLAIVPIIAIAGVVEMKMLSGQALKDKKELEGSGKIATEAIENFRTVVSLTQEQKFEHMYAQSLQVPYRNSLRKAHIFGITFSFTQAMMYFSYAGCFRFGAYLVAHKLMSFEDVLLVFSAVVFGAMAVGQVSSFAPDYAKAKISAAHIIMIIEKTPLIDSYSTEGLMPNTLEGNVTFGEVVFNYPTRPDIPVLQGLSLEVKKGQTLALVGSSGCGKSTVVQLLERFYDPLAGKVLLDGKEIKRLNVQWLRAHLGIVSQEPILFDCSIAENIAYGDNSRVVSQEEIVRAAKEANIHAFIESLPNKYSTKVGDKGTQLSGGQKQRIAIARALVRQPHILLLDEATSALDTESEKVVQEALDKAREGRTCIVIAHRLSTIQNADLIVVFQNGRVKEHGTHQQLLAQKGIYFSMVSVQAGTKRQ
From the text: (§1) The KB/MDR cells, which overexpress human P-gp 170 protein, were used to evaluate the anti-P-gp 170 activity of drugs. […] The concentration of compound required to achieve 50% maximum accumulation of vinblastine is presented as the EC50 value. The maximum accumulation of intracellular vinblastine caused by the compounds in one hour is expressed as Amax (picomoles/10^6 cells). The cell growth inhibitory activity of compounds is presented as the concentration required to inhibit 50% growth of KB or KB/MDR cell lines (IC50) following three days of compound treatment.
(§2) Vinblastine uptake by the KB/MDR cells. KB/MDR cells,^37 which overexpress human P-gp 170 protein, were seeded into 24-well tissue culture plates in RPMI 1640 medium plus 10% fetal bovine serum for 24 hours without the selecting agent doxorubicin (37 nM). The cells were then treated with [^3H]vinblastine plus synthetic flavones in HBSS for 60 minutes. The cells were washed twice with ice-cold PBS, harvested with 1 N NaOH, neutralized with 1 N HCl. The cell aliquots were transferred to scintillation vials and counted with a […] (Beckman, model LS 5000) after adding 10 mL scintillation fluids (SafeScint, American Bioanalytical Co., Natick, Mass.). Data presented are the mean of three independent experiments.

KB cells = test: Growth inhibitory assay, KB cells; type: cell-based, human; settings: 3 days
Description: (§3) The cells were then fixed and stained with methylene blue in 50% MeOH, washed thoroughly with tap water, and dissolved with 0.5 mL 0.5% sarcosyl.^38 The amount of cellular protein, which is proportional to the cell number, is estimated by the absorption (OD595nm). The growth inhibitory assay, which is presented as an IC50 value, represents the concentration of compound required to inhibit 50% of cell growth. The cell doubling time of KB and KB/MDR cells is about 20 to 24 hours. The data presented are the mean of three independent experiments.

KB/MDR cells = test: Growth inhibitory assay, KB/MDR cells; type: cell-based, human; settings: 3 days
Description: as §3

[2] = biological target: P-gp 170 (human P-glycoprotein) (Homo sapiens, UniProt P08183); test: in vitro; settings: human
Chain of P-gp 170 (human P-glycoprotein) (P08183 whole entry): as above
From the text: as §1, §2

P-gp 170 [3] = biological target: T1, P-gp 170; test: Inhibitory activity of Scute and its components against P-gp 170 efflux action (previous study)
P-gp 170 [4] = biological target: T1, P-gp 170
P-gp = P-gp (Homo sapiens, UniProt P08183); settings: their (Boumendjel et al.) experiments; cited from earlier work
Chain of P-gp (P08183 whole entry): as above

Compound: CC(=O)Oc1cc2oc(-c3ccccc3)cc(=O)c2c(O)c1OCc1ccccc1 [Compound 10, 7-Acetoxy-6-(benzoxy)-5-hydroxyflavone]
anti-P-gp 170 efflux activity (EC50, Amax) in words (P-gp 170 [1]): low EC50 but higher Amax in comparison with baicalein

EC50 (P-gp 170 [1]): 4600 nM
Compound: COc1cc2oc(-c3ccccc3)cc(=O)c2c(OC)c1OC [Compound 6, 5,6,7-Trimethoxyflavone]

Compound: COc1cc2oc(-c3ccccc3)cc(=O)c2c(OC)c1OC(C)=O [Compound 5, 6-Acetoxy-5,7-dimethoxyflavone]
melting point: 208 to 210 °C

Compound: O=c1cc(-c2ccccc2)oc2cc(OCc3ccccc3)c(OCc3ccccc3)c(O)c12 [Compound 16, 6,7-(Dibenzoxy)-5-hydroxy-flavone]
cytotoxicity in words (KB cells): decreased and lost | cytotoxicity in words (KB/MDR cells): decreased and lost

Compound: CC(=O)Oc1c(OC(C)=O)c(O)c2c(=O)cc(-c3ccccc3)oc2c1Br [Compound 24, 6,7-Diacetoxy-8-bromo-5-hydroxyflavone]
anti-P-gp 170 efflux activity (EC50, Amax) in words (P-gp 170 [1]): less favorable activity against P-gp 170 activity than compound 3 | melting point: 244 to 246 °C

Compound: CCCOc1cc2oc(-c3ccccc3)cc(=O)c2c(OC)c1OCCC [Compound 23, 5-Methoxy-6,7-dipropoxyflavone]
EC50 (P-gp 170 [1]): 900 nM

anti-P-gp 170 efflux activity (EC50, Amax) in words (P-gp 170 [1]): Amax did not change | EC50 at 60 min [2]: 15000 nM
Compound: O=c1cc(-c2ccccc2)oc2c(Br)c(O)c(O)c(O)c12 [Compound 25, 8-Bromo-5,6,7-trihydroxyflavone]

melting point: 133 to 134 °C
Compound: CCOc1c(OC)cc2oc(-c3ccccc3)cc(=O)c2c1O [Compound 38, 6-Ethoxy-5-hydroxy-7-methoxyflavone]

Compound: CC(=O)Oc1cc2oc(-c3ccccc3)cc(=O)c2c(OCc2ccccc2)c1OC(C)=O [Compound 9, 6,7-Diacetoxy-5-(benzoxy)flavone]
anti-P-gp 170 efflux activity (EC50, Amax) in words (P-gp 170 [1]): low EC50 but higher Amax in comparison with baicalein | melting point: 175 to 177 °C

Compound: CCCCOc1cc2oc(-c3ccccc3)cc(=O)c2c(OC)c1OCCCC [Compound 46, 6,7-Dibutoxy-5-methoxyflavone]
melting point: 103 to 105 °C

Compound: CCCCOc1cc2oc(-c3ccccc3)cc(=O)c2c(O)c1OCCCC [Compound 45, 6,7-Dibutoxy-5-hydroxyflavone]
melting point: 116 to 117 °C

EC50 (P-gp 170 [1]): 5500 nM
Compound: COc1cc2oc(-c3ccccc3)cc(=O)c2c(O)c1OC [Compound 8, 5-Hydroxy-6,7-dimethoxyflavone]

Amax (maximum accumulation of intracellular vinblastine), fold higher than control (P-gp 170 [1]): 10 fold | EC50 at 60 min [2]: 1400 nM
Compound: CCCOc1cc2oc(-c3ccccc3)cc(=O)c2c(O)c1OCCC [Compound 18, 5-Hydroxy-6,7-dipropoxyflavone]

Compound: COc1c(O[C@@H]2O[C@H](C(=O)O)[C@@H](O)[C@H](O)[C@H]2O)cc(O)c2c(=O)cc(-c3ccccc3)oc12 [wogonoside]
anti-P-gp 170 activity in words (P-gp 170 [3]): lack inhibitory activity

anti-P-gp 170 activity in words (P-gp 170 [4]): lack inhibitory activity
Compound: COc1c(O)cc(O)c2c(=O)cc(-c3ccccc3)oc12 [wogonin, 5,7-dihydroxy-8-methoxyflavone]

Compound: CC(=O)Oc1c(OCc2ccccc2)cc2oc(-c3ccccc3)cc(=O)c2c1OC(C)=O [Compound 14, 5,6Diacetoxy-7-(benzoxy)flavone]
anti-P-gp 170 efflux activity (EC50, Amax) in words (P-gp 170 [1]): low EC50 but higher Amax in comparison with baicalein | melting point: 174 to 175 °C

EC50 (P-gp 170 [1]): 2000 nM | Amax (maximum accumulation of intracellular vinblastine), fold higher than control (P-gp 170 [1]): 9 fold | melting point: 162 to 163 °C
Compound: CCCOc1c(O)cc2oc(-c3ccccc3)cc(=O)c2c1O [Compound 17, 5,7-Dihydroxy-6-propoxyflavone]

Compound: CC(=O)Oc1c(O)cc2oc(-c3ccccc3)cc(=O)c2c1O [Compound 2, 6-Acetoxy-5,7-dihydroxyflavone]
EC50 relative to the parental compound (baicalein) (P-gp 170 [1]): one-fourth | melting point: 205 to 207 °C

melting point: 126 to 128 °C
Compound: CCOc1cc2oc(-c3ccccc3)cc(=O)c2c(OC)c1OCC

Compound: CCOc1c(O)cc2oc(-c3ccccc3)cc(=O)c2c1O [Compound 32, 6-Ethoxy-5,7-dihydroxyflavone]
EC50 (P-gp 170 [1]): 2300 nM

Compound: O=c1cc(-c2ccccc2)oc2cc(O)c(OCc3ccccc3)c(O)c12 [Compound 15, 6-(Benzoxy)-5,7-dihydroxyflavone]
anti-P-gp 170 efflux activity (EC50, Amax) in words (P-gp 170 [1]): low EC50 but higher Amax in comparison with baicalein

Compound: O=c1cc(-c2ccccc2)oc2cc(OCc3ccccc3)cc(O)c12 [7-benzoxy-5-hydroxyflavone]
Amax / drug accumulation as compared to cyclosporin A (P-gp): 25%

EC50 (P-gp 170 [1]): 1200 nM | Amax (maximum accumulation of intracellular vinblastine), fold higher than control (P-gp 170 [1]): 9 fold
Compound: CCCOc1c(OC)cc2oc(-c3ccccc3)cc(=O)c2c1O [Compound 21, 5-Hydroxy-7-methoxy-6-propoxyflavone]

Compound: O=c1cc(-c2ccccc2)oc2cc(O)c(O)c(O)c12 [Compound 1, baicalein]
anti-P-gp 170 activity in words (P-gp 170 [4]): active component

Compound: CCOc1cc2oc(-c3ccccc3)cc(=O)c2c(O)c1OCC [Compound 33, 6,7-Diethoxy-5-hydroxyflavone]
EC50 (P-gp 170 [1]): 1800 nM

Compound: CC(=O)Oc1cc2oc(-c3ccccc3)cc(=O)c2c(O)c1OC(C)=O [Compound 3, 6,7-Diacetoxy-5-hydroxyflavone]
EC50 relative to the parental compound (baicalein) (P-gp 170 [1]; KB/MDR cells): one-fourth

anti-P-gp 170 efflux activity (EC50, Amax) in words (P-gp 170 [1]): decreased
Compound: COc1c2c(cc3oc(-c4ccccc4)cc(=O)c13)OC(c1ccccc1)(c1ccccc1)O2 [Compound 13, 6,7-(Diphenylmethylenedioxy)-5-methoxyflavone]
cytotoxicity in words (KB cells): decreased | cytotoxicity in words (KB/MDR cells): decreased
